Laboratory results taken from paper PMC8309005, “Novel Non-Congeneric Derivatives of the Choline Kinase Alpha Inhibitor ICL-CCIC-0019” (Pharmaceutics, 2021).

What was measured:
[1] = system: C4-2B prostate cancer cells; test: Cellular uptake and metabolism study in C4-2B with or without serum (HPLC); settings: 50 μM, 4 h
Method: Cell lysate sample preparation: C4-2B prostate cancer cells were seeded into cell culture dishes (150 × 25 mm) at a density of 7 × 10^6 per dish. The cells were allowed to settle and grow for another 48 h. The cells were treated with ICL-CCIC-0019, CK146, CK147 and CK148 (50 μM of 7 mL RPMI medium with or without 10% FCS) for 4 h in the incubator. After 4-h incubation, the aliquots of medium were collected (see the medium sample preparation section). Cells were scraped, washed with ice-cold PBS three times and collected by centrifugation (4 °C, 4000× g). The cell pellets were resuspended in 500 μL of chilled acetonitrile:PBS (50:50, v/v) for cell disruption and homogenization. The cell disruption was performed by a Precellys® 24 homogenizer (Bertin Technologies, Montigny-le-Bretonneux, France) at 4 °C. After acetonitrile evaporation at room temperature, 50 μL of cell lysis was taken for protein analysis. Another 100 μL of the supernatant obtained after centrifuge (4 °C, 15,000× g) was resuspended in 100 μL formic acid:water (0.2%, v/v). Next, 100 μL of the filtered solution was analyzed by HPLC system described in Supplementary HPLC method D. Three injections were performed for each sample. Intracellular drug was normalized to cellular protein of each plate using BCA assay. Medium sample preparation for HPLC analysis: 250-μL aliquots of medium (with or without 10% FCS) were transferred into 1.5-mL tube containing 250 μL acetonitrile. After a brief vortex, the tube was placed at 4 °C for 30 min for protein precipitation. One hundred microliters of the resulting supernatant from centrifuge (4 °C, 15,000× g) were resuspended in 100 μL formic acid: water (0.2%, v/v). One hundred microliters of the filtered sample were analyzed by HPLC system described in Supplementary HPLC method D. Three injections were performed for each sample.

SKBR3 = system: SKBR3; set-up: method as in PMID 22278967, PMID 9393874; settings: cited from earlier work
CHKA = system: CHKA; set-up: method as in ref 18, 25 (HC-3), 20, 21 (MN58B), 23 (RSM-932A); settings: CHKA inhibitors of Figure 1; 25 (HC-3), 20, 21 (MN58B), 23 (RSM-932A); cited from earlier work
NIH3T3 = system: NIH3T3; set-up: method as in PMID 22278967, PMID 9393874; settings: cited from earlier work

Q: For CN(C)c1cc[n+](CCCCCCCCCCCCCC[n+]2ccc(N3CCN(C(=O)CSC4CC(=O)N(CCC(=O)NCCCCCC(=O)NCCCCC(NC(=O)NC(CCC(=O)OC(C)(C)C)C(=O)OC(C)(C)C)C(=O)OC(C)(C)C)C4=O)CC3)cc2)cc1 (centres unmarked) [CK148], which “cellular uptake, mean ± SD of two experiment groups” value ([1]; FCS positive and negative groups) is on record?
A: 42.5 ± 11.5 % μg^−1 protein

Q: What about the “detection in cell lysates by HPLC (in words)” value ([1]; both FCS groups) of the same molecule?
A: detected

Q: Which results are given for C[N+]1(C)CCOC(O)(c2ccc(-c3ccc(C4(O)C[N+](C)(C)CCO4)cc3)cc2)C1 (centres unmarked) [HC-3, Hemicholinium-3]?
A: GI50 (SKBR3): > 500 µM; IC50 (CHKA): 0.95 µM; GI50 (NIH3T3): 600 µM
